# Measurements from ChEMBL document CHEMBL1134938, “Inhibition of HIV-1 nuclear import via schiff base formation with arylene bis(methylketone) compounds” (Bioorg Med Chem Lett, 2002).
# How the values were obtained:
# [1] = tested on: Human immunodeficiency virus 1; assay: Concentration required to block the Nuclear translocation of HIV-1 pre-integration complex with Reverse Transcriptase protein; assay type: functional, organism-based
# [2] = tested on: Human immunodeficiency virus 1; assay: Concentration required to block the Nuclear translocation of HIV-1 pre-integration complex with Reverse Transcriptase protein; NA: Not Active; assay type: functional, organism-based
SMILES,IC50 [1] [µM],IC50 [2]
Cc1cc(Nc2cc(C(=O)O)cc(C(=O)O)c2)nc(N)[n+]1C,0.1,–
CC(=O)c1cc(Nc2cc(C)[n+](C)c(N)n2)cc(C(C)=O)c1,0.1,–
Cc1cc(Nc2cc(C(C)O)cc(C(C)O)c2)nc(N)[n+]1C (centres undefined),–,Not Active
COC(=O)c1cc(Nc2cc(C)[n+](C)c(N)n2)cc(C(=O)OC)c1,–,Not Active
